The target of test [1] is full-length human HPK1 (MAP4K1) (Homo sapiens (Human), UniProt Q92918). In words: HPK1 Kinase Assay (Biochemical Assay), ADP-Glo. The settings on record: GST-HPK1 3.2 nM, 10 μM ATP, MBP substrate, read-out: HPK1 enzymatic IC50. The method in brief: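 GST-tagged full-length human HPK1 was expressed in Sf21 cells and used at 3.2 nM in 50 mM HEPES pH 7.5, 10 mM MgCl2, 2 mM DTT, 12.5 mM O-glycerophosphate, 0.01% BSA and 0.02% Brij-35. It was preincubated 15 min with 10-point compound dilutions, and the reaction was started with a start mix of 10 μM ATP and 3.235 μM MBP. After 120 min, ADP was measured by ADP-Glo luminescence and IC50 derived.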
(In ADP-Glo the light output rises with the ADP produced.)

The target of test [2] is HPK1 (SLP76 phosphorylation at Ser376 in Jurkat and EL-4 cells) (Homo sapiens, UniProt Q92918). The class given is cell-based. The method in brief: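 Jurkat (human) and EL-4 (mouse) cells, endogenous HPK1/SLP76, preincubated 60 min with compounds (10-point dilution), then stimulated with αCD3/αCD28 beads at 37 °C: 15 min for Jurkat, 30 min for EL-4. Ser376 pSLP76 in lysates read by AlphaLISA (Jurkat) or HTRF (EL-4); % inhibition and IC50 fitted.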

[3] abbreviates: αCD3/αCD28 Dynabeads stimulated cells, pSLP76 (Ser376) detection; read-out: HPK1 pSLP76 IC50.
Setting [4] is: read-out: HPK1 pSLP76 IC50; αCD3/αCD28 Dynabeads stimulated cells, pSLP76 (Ser376) detection.

SMILES strings stand for the structures. Where two headings read alike, the source gives them in different places.

Sequence of full-length human HPK1 (MAP4K1) (Q92918 whole entry): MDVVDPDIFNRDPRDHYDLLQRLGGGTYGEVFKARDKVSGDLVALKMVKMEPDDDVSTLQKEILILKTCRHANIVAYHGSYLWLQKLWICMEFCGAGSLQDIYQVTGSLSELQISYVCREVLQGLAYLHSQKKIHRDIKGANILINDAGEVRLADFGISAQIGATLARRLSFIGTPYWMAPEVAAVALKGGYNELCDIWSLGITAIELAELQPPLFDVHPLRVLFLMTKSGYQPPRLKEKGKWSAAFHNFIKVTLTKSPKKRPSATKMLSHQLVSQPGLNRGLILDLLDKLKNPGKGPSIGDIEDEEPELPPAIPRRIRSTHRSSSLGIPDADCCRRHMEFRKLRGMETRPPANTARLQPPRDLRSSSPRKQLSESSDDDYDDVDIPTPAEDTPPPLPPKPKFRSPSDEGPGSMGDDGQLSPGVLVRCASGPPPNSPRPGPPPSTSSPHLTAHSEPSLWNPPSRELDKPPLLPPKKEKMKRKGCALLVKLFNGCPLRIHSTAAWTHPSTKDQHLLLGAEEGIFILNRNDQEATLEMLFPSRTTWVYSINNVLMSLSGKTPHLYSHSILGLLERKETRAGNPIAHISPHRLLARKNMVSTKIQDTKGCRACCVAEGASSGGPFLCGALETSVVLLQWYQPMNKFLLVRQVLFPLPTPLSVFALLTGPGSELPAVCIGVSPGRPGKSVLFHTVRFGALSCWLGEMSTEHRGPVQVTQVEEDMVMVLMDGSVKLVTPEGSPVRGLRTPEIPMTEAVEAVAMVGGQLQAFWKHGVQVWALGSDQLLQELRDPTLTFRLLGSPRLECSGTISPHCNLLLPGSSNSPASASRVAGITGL
Sequence of HPK1 (SLP76 phosphorylation at Ser376 in Jurkat and EL-4 cells) (Q92918 whole entry, looked up): as the sequence (Q92918 whole entry) above

In general, IC50 refers to the concentration that gives 50% inhibition. As for `Cc1c(N2CCc3cnc(Nc4ccc(CO)cc4)nc3C2)cnc2c1NCCO2` [Example 133, {4-[(7-{8-methyl-1H,2H,3H-pyrido[2,3-b][1,4]oxazin-7-yl}-5H,6H,7H,8H-pyrido[3,4-d]pyrimidin-2-yl)amino]phenyl}methanol], the IC50 in test [1] is less than 100 nM; in test [2] (setting [3]), less than 500 nM.
`Cc1c(N2CCc3cnc(Nc4ccnc(CS(C)(=O)=O)c4)nc3C2)cnc2c1NCCO2` [Example 49, 7-(8-methyl-2,3-dihydro-1H-pyrido[2,3-b][1,4]oxazin-7-yl)-N-(2-((methylsulfonyl)methyl)pyridin-4-yl)-5,6,7,8-tetrahydropyrido[3,4-d]pyrimidin-2-amine]: the 50% inhibitory concentration (IC50) in test [1] was less than 100 nM; in test [2] (setting [3]) it was 500 to 1000 nM.
Take `Cc1c(N2CCc3cnc(Nc4ccc5c(c4)CN(C)S(=O)(=O)C5)nc3C2)cnc2c1NCCO2` [Example 156, 3-methyl-6-[(7-{8-methyl-1H,2H,3H-pyrido[2,3-b][1,4]oxazin-7-yl}-5H,6H,7H,8H-pyrido[3,4-d]pyrimidin-2-yl)amino]-3,4-dihydro-1H-2?6,3-benzothiazine-2,2-dione]: the figures for the IC50 in test [1] and in test [2] (setting [3]) were less than 100 nM and less than 500 nM, respectively.
For the compound `Cc1c(N2CCc3cnc(Nc4ccc(OC5CCOCC5)cc4)nc3C2)cnc2c1NCCO2` [Example 94, 7-(8-methyl-2,3-dihydro-1H-pyrido[2,3-b][1,4]oxazin-7-yl)-N-(4-((tetrahydro-2H-pyran-4-yl)oxy)phenyl)-5,6,7,8-tetrahydropyrido[3,4-d]pyrimidin-2-amine], the IC50 is less than 100 nM in test [1] and 500 to 1000 nM in test [2] (setting [4]).
In the case of `Cc1c(N2CCc3cnc(Nc4cc5n(n4)CC(=O)N(C(C)C)CC5)cc3C2)cnc2c1NCCO2` [Example 7, 2-[(6-{8-methyl-1H,2H,3H-pyrido[2,3-b][1,4]oxazin-7-yl}-5,6,7,8-tetrahydro-2,6-naphthyridin-3-yl)amino]-6-(propan-2-yl)-4H,5H,6H,7H,8H-pyrazolo[1,5-d][1,4]diazepin-7-one], the values for the half-maximal inhibitory concentration (IC50) in test [1] and in test [2] (setting [3]) were less than 100 nM and less than 500 nM, respectively.
Taken in the same sequence, the figures for `Cc1c(N2CCc3cnc(Nc4cnc5c(c4)CN(C)CC5)cc3C2)cnc2c1NCCO2` [Example 109, 6-methyl-N-(6-(8-methyl-2,3-dihydro-1H-pyrido[2,3-b][1,4]oxazin-7-yl)-5,6,7,8-tetrahydro-2,6-naphthyridin-3-yl)-5,6,7,8-tetrahydro-1,6-naphthyridin-3-amine] were 100 to 1000 nM and greater than 1000 nM.
Take `Cc1cc(Nc2ncc3c(n2)CN(c2cnc4c(c2Cl)NCCO4)CC3)ccc1NC(=O)CN1CCC1` [Example 121, 2-(azetidin-1-yl)-N-(4-((7-(8-chloro-2,3-dihydro-1H-pyrido[2,3-b][1,4]oxazin-7-yl)-5,6,7,8-tetrahydropyrido[3,4-d]pyrimidin-2-yl)amino)-2-methylphenyl)acetamide]: the IC50 is less than 100 nM in test [1] and less than 500 nM in test [2] (setting [3]).
For `Cc1c(N2CCc3cnc(Nc4ccc5c(c4)CNC5(C)C)nc3C2)cnc2c1NCCO2` [Example 13, 1,1-dimethyl-N-(7-{8-methyl-1H,2H,3H-pyrido[2,3-b][1,4]oxazin-7-yl}-5H,6H,7H,8H-pyrido[3,4-d]pyrimidin-2-yl)-2,3-dihydro-1H-isoindol-5-amine], the IC50 in test [1] was less than 100 nM; in test [2] (setting [3]), less than 500 nM.
For `Cc1c(N2CCc3cnc(Nc4cccc(N5CCN(C)CC5)c4)nc3C2)cnc2c1NCCO2` [Example 61, 7-{8-methyl-1H,2H,3H-pyrido[2,3-b][1,4]oxazin-7-yl}-N-[3-(4-methylpiperazin-1-yl)phenyl]-5H,6H,7H,8H-pyrido[3,4-d]pyrimidin-2-amine], the IC50 in test [1] was less than 100 nM; in test [2] (setting [4]) it was 500 to 1000 nM.
On to `CS(=O)(=O)Cc1ccc(Nc2ncc3c(n2)CN(c2cnc4c(c2C2CC2)NCCO4)CC3)cc1` [Example 132, 7-{8-cyclopropyl-1H,2H,3H-pyrido[2,3-b][1,4]oxazin-7-yl}-N-[4-(methanesulfonylmethyl)phenyl]-5H,6H,7H,8H-pyrido[3,4-d]pyrimidin-2-amine], for which the IC50 in test [1] was less than 100 nM; in test [2] (setting [3]), less than 500 nM.
As to `Cc1cc(Nc2ncc3c(n2)CN(c2cnc4c(c2C)NCCO4)CC3)ccc1NC(=O)CN1CCCC1` [Example 10, N-{2-methyl-4-[(7-{8-methyl-1H,2H,3H-pyrido[2,3-b][1,4]oxazin-7-yl}-5H,6H,7H,8H-pyrido[3,4-d]pyrimidin-2-yl)amino]phenyl}-2-(pyrrolidin-1-yl)acetamide], the figures for the IC50 in test [1] and in test [2] (setting [3]) were less than 100 nM and less than 500 nM, respectively.
In the case of `Cc1c(N2CCc3cnc(Nc4ccc(CS(C)(=O)=O)cc4)nc3C2C)cnc2c1NCCO2` (stereo not shown) [Example 180, N-[4-(methanesulfonylmethyl)phenyl]-8-methyl-7-{8-methyl-1H,2H,3H-pyrido[2,3-b][1,4]oxazin-7-yl}-5H,6H,7H,8H-pyrido[3,4-d]pyrimidin-2-amine], the IC50 in test [1] was less than 100 nM; in test [2] (setting [3]) it was less than 500 nM.
In the case of `Cc1c(N2CCc3cnc(Nc4ccc(CN5CCOC5=O)cc4)nc3C2)cnc2c1NCCO2` [Example 188, 3-({4-[(7-{8-methyl-1H,2H,3H-pyrido[2,3-b][1,4]oxazin-7-yl}-5H,6H,7H,8H-pyrido[3,4-d]pyrimidin-2-yl)amino]phenyl}methyl)-1,3-oxazolidin-2-one], the IC50 in test [1] is less than 100 nM; in test [2] (setting [3]), less than 500 nM.
In the case of `COC1CN(C(=O)Cc2ccc(Nc3ncc4c(n3)CN(c3cnc5c(c3C)NCCO5)CC4)cc2)C1` [Example 181, 1-(3-methoxyazetidin-1-yl)-2-{4-[(7-{8-methyl-1H,2H,3H-pyrido[2,3-b][1,4]oxazin-7-yl}-5H,6H,7H,8H-pyrido[3,4-d]pyrimidin-2-yl)amino]phenyl}ethan-1-one], the results for the IC50 in test [1] and in test [2] (setting [3]) were less than 100 nM and less than 500 nM, respectively.
For the compound `Cc1c(N2CCc3cnc(Nc4ccc(CC#N)cc4)nc3C2)cnc2c1NCCO2` [Example 148, 2-{4-[(7-{8-methyl-1H,2H,3H-pyrido[2,3-b][1,4]oxazin-7-yl}-5H,6H,7H,8H-pyrido[3,4-d]pyrimidin-2-yl)amino]phenyl}acetonitrile; formic acid], the IC50 in test [1] is less than 100 nM; in test [2] (setting [3]), less than 500 nM.
With `Cc1c(N2CCc3cnc(Nc4ccc(C(=O)N5CC[C@@H](N(C)C)C5)cc4)nc3C2)cnc2c1NCCO2` [Example 42, (3R)—N,N-dimethyl-1-{4-[(7-{8-methyl-1H,2H,3H-pyrido[2,3-b][1,4]oxazin-7-yl} 5H,6H,7H,8H-pyrido[3,4-d]pyrimidin-2-yl)amino]benzoyl}pyrrolidin-3-amine], the half-maximal inhibitory concentration (IC50) in test [1] was less than 100 nM; in test [2] (setting [3]), less than 500 nM.
`COCCOCCS(=O)(=O)c1ccc(Nc2ncc3c(n2)CN(c2cnc4c(c2C)NCCO4)CC3)cc1` [Example 147, N-{4-[2-(2-methoxyethoxy)ethanesulfonyl]phenyl}-7-{8-methyl-1H,2H,3H-pyrido[2,3-b][1,4]oxazin-7-yl}-5H,6H,7H,8H-pyrido[3,4-d]pyrimidin-2-amine]: the IC50 was less than 100 nM in test [1] and less than 500 nM in test [2] (setting [3]).
As to `Cc1cc(Nc2ncc3c(n2)CN(c2cnc4c(c2C)NCCO4)CC3)ccc1CS(C)(=O)=O` [Example 178, N-[4-(methanesulfonylmethyl)-3-methylphenyl]-7-{8-methyl-1H,2H,3H-pyrido[2,3-b][1,4]oxazin-7-yl}-5H,6H,7H,8H-pyrido[3,4-d]pyrimidin-2-amine], the IC50 was less than 100 nM in test [1] and less than 500 nM in test [2] (setting [3]).
For the compound `Cc1c(N2CCc3cnc(Nc4ccc(N5CCN(C)CC5)cc4)nc3C2)cnc2c1NCCO2` [Example 55, 7-(8-methyl-2,3-dihydro-1H-pyrido[2,3-b][1,4]oxazin-7-yl)-N-(4-(4-methylpiperazin-1-yl)phenyl)-5,6,7,8-tetrahydropyrido[3,4-d]pyrimidin-2-amine], the IC50 was less than 100 nM in test [1] and 500 to 1000 nM in test [2] (setting [4]).
As to `Cc1c(N2CCc3cnc(Nc4ccc(OCCN5CCOCC5)cc4)nc3C2)cnc2c1NCCO2` [Example 97, 7-(8-methyl-2,3-dihydro-1H-pyrido[2,3-b][1,4]oxazin-7-yl)-N-(4-(2-morpholinoethoxy)phenyl)-5,6,7,8-tetrahydropyrido[3,4-d]pyrimidin-2-amine], the values for the IC50 in test [1] and in test [2] (setting [4]) were less than 100 nM and 500 to 1000 nM, respectively.
With `Cc1c(N2CCc3cnc(Nc4cccc(S(C)(=O)=O)c4)nc3C2)cnc2c1NCCO2` [Example 79, 7-(8-methyl-2,3-dihydro-1H-pyrido[2,3-b][1,4]oxazin-7-yl)-N-(3-(methylsulfonyl)phenyl)-5,6,7,8-tetrahydropyrido[3,4-d]pyrimidin-2-amine], the IC50 in test [1] was less than 100 nM; in test [2] (setting [3]), less than 500 nM.
The matching figures for `Cc1c(N2CCc3cnc(Nc4ccc(CCS(C)(=O)=O)cc4)nc3C2)cnc2c1NCCO2` [Example 161, N-[4-(2-methanesulfonylethyl)phenyl]-7-{8-methyl-1H,2H,3H-pyrido[2,3-b][1,4]oxazin-7-yl}-5H,6H,7H,8H-pyrido[3,4-d]pyrimidin-2-amine]: less than 100 nM and less than 500 nM.
`Cc1c(N2CCc3cnc(Nc4ccc(C(C)(C)C#N)cc4)nc3C2)cnc2c1NCCO2` [Example 182, 2-methyl-2-(4-((7-(8-methyl-2,3-dihydro-1H-pyrido[2,3-b][1,4]oxazin-7-yl)-5,6,7,8-tetrahydropyrido[3,4-d]pyrimidin-2-yl)amino)phenyl)propanenitrile]: the IC50 in test [1] is less than 100 nM; in test [2] (setting [3]), less than 500 nM.

For the origin of these results see patent US20240025922A1, “TETRAHYDROPYRIDO[3,4-d]PYRIMIDINES AS HPK1 INHIBITORS” (Merck Patent GmbH, priority 2022, published 2024).
